Values of other authors in patent publication US20250144159A1, “COMPOSITION COMPRISING A MIXTURE OF DHA AND/OR EPA AND A PHOSPHOLIPID OF PLANT ORIGIN” (POLARIS, priority 2022, published 2025).

Details: oral intake; compared with DHA in triglyceride (TG) form

| SMILES | cerebral capture of DHA |
| --- | --- |
| CCC=CCC=CCC=CCC=CCC=CCC=CCCC(=O)OC(COC(C)=O)COP(=O)([O-])OCC[N+](C)(C)C (centres unmarked) [AceDoPC] | improves |
| CC/C=C\C/C=C\C/C=C\C/C=C\C/C=C\C/C=C\CCC(=O)OC(CO)COP(=O)([O-])OCC[N+](C)(C)C (centres unmarked) [lysoPC-DHA] | improves |
